Consider 13 compounds from ChEMBL document CHEMBL1201862, “PubChem BioAssay data set” (2004).

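Test compounds were applied to cells in 96-well plates for 48 hours at 5 doses. GI50 marks 50% less growth.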 Active and inactive are the calls of the source. Cut-off read from the data, not from the text of the source: active = GI50 up to about 1.1 µM and inactive = higher.

Among the test systems are NCI-H226; HCC 2998; HOP-62; 786-0; RXF 393; SNB-75; M14; TK-10; IGROV-1; OVCAR-4; OVCAR-8; SK-OV-3; HL-60; SN12C; SK-MEL-28; U-251; DU-145; NCI/ADR-RES; PC-3.
Assay in all cases: NCI tumour cell line growth inhibition, 48 h

As to `CC1(c2cccc(N)c2)C2C(=O)NC(=O)C1C(=O)NC2=O` (stereo not given), the GI50 in the test with NCI-H226 is 28.1 µM (inactive); in the test on HCC 2998 it was 52.2 µM (inactive); with HOP-62, 32.2 µM (inactive); with 786-0 it was 38.3 µM (inactive); in the test on RXF 393, 26.1 µM (inactive); in the test with SNB-75, 28.1 µM (inactive). The GI50 in the test with M14 was 36.7 µM (inactive); in the test with TK-10 it was 50.9 µM (inactive); in the test on IGROV-1, 44.3 µM (inactive); in the test on OVCAR-4, 36.7 µM (inactive); in the test with OVCAR-8 it was 35.9 µM (inactive); with SK-OV-3, 23.9 µM (inactive). Moreover, the GI50 in the test on HL-60 is 19.6 µM (inactive); in the test with SN12C, 29 µM (inactive); in the test with SK-MEL-28, 38.6 µM (inactive).

With `C[C@@H]1C[C@@H]([C@H](O)CC2CC(=O)NC(=O)C2)C(=O)[C@@H](C)C1` [CYCLOHEXIMIDE], the GI50 is 0.219 µM (active) with NCI-H226; 0.0378 µM (active) in the test on HCC 2998; 0.0596 µM (active) in the test with HOP-62; 0.0372 µM (active) with 786-0; 0.0315 µM (active) in the test with RXF 393; 0.083 µM (active) with SNB-75. The GI50 in the test on M14 is 0.0532 µM (active); in the test with TK-10, 0.0865 µM (active); with IGROV-1, 0.0532 µM (active); in the test with U-251, 0.0603 µM (active); in the test on OVCAR-4, 0.0366 µM (active); in the test on OVCAR-8 it was 0.044 µM (active). Further, the GI50 in the test with SK-OV-3 is 0.127 µM (active); with HL-60 it was 0.0485 µM (active); in the test with SN12C, 0.0199 µM (active); in the test on SK-MEL-28, 0.0352 µM (active).

As to `Cc1c(N2C(=O)C(Cl)C2/C=C/c2ccccc2)c(=O)n(-c2ccccc2)n1C` (stereo not given), the GI50 is 25.1 µM (inactive) in the test with NCI-H226; 22.8 µM (inactive) in the test on HOP-62; 24.9 µM (inactive) in the test with 786-0; 26.9 µM (inactive) with RXF 393; 34.6 µM (inactive) with DU-145; 34.1 µM (inactive) in the test on SNB-75. For the same compound, the GI50 is 17.2 µM (inactive) with M14; 14.3 µM (inactive) with TK-10; 17.1 µM (inactive) in the test on IGROV-1; 6.22 µM (inactive) in the test with U-251; > 100 µM (inactive) in the test on NCI/ADR-RES; 29.5 µM (inactive) in the test with OVCAR-4. Also, the GI50 in the test with PC-3 is 31.6 µM (inactive); in the test with OVCAR-8, 22.1 µM (inactive); in the test with SK-OV-3, 32 µM (inactive); in the test with HL-60 it was 20.1 µM (inactive); with SN12C it was 20.4 µM (inactive).

Consider `CCNC(=O)COc1ccc(Cl)c(C)c1`, for which the GI50 in the test with NCI-H226 was > 100 µM (inactive); in the test with HCC 2998, > 100 µM (inactive); with HOP-62 it was > 100 µM (inactive); in the test on 786-0 it was > 100 µM (inactive); in the test with RXF 393, > 100 µM (inactive); with SNB-75, 86.1 µM (inactive). Besides, the GI50 in the test on M14, in the test with TK-10, with IGROV-1, in the test on U-251, in the test on OVCAR-4 and with SK-OV-3 was > 100 µM (inactive) each time. Further, the GI50 in the test on HL-60, in the test on SN12C and in the test on SK-MEL-28 was > 100 µM (inactive) in each case.

For `N#CC1CC2(C1)OCCS2` (stereo not given), the GI50 was > 100 µM (inactive) in the test on NCI-H226; > 100 µM (inactive) in the test on HCC 2998; > 100 µM (inactive) with HOP-62; > 100 µM (inactive) in the test on 786-0; > 100 µM (inactive) in the test with RXF 393; 32.3 µM (inactive) with SNB-75. Further, the GI50 with M14, with TK-10, with IGROV-1, in the test with U-251, in the test with OVCAR-4 and in the test with OVCAR-8 was > 100 µM (inactive) in each case. Also, the GI50 with HL-60, in the test on SN12C and in the test on SK-MEL-28 was > 100 µM (inactive) in each case.

As to `Cc1nc(Nc2ccc([N+](=O)[O-])cc2)sc1C(/C=C/c1ccc(N(C)C)cc1)=N/NC(=O)c1ccccc1`, the GI50 in the test on NCI-H226 is 63 µM (inactive); with HCC 2998 it was 41.3 µM (inactive); in the test with HOP-62, 40 µM (inactive); in the test on 786-0 it was 85.9 µM (inactive); with RXF 393 it was 58.6 µM (inactive); in the test with SNB-75 it was > 100 µM (inactive). In addition, the GI50 was 48.8 µM (inactive) in the test with M14; 52.8 µM (inactive) with TK-10; 51.3 µM (inactive) with IGROV-1; 56.6 µM (inactive) with U-251; 76 µM (inactive) in the test with OVCAR-4; > 100 µM (inactive) in the test on OVCAR-8. Moreover, the GI50 is > 100 µM (inactive) in the test with SK-OV-3, 22.6 µM (inactive) in the test on HL-60, 59.3 µM (inactive) in the test with SN12C and > 100 µM (inactive) in the test with SK-MEL-28.

As to `O=c1c2ccccc2[nH]c2c(Cl)cc(Cl)c(NC3CCCCC3)c12`, the GI50 was 21.6 µM (inactive) with NCI-H226; 25.1 µM (inactive) in the test on HCC 2998; 20.7 µM (inactive) with HOP-62; 31.3 µM (inactive) in the test with 786-0; 27.2 µM (inactive) with SNB-75; 18.6 µM (inactive) with M14. Moreover, the GI50 with TK-10 was 22.2 µM (inactive); in the test on IGROV-1, 18.2 µM (inactive); in the test on U-251 it was 16.7 µM (inactive); with NCI/ADR-RES, 18.5 µM (inactive); with OVCAR-4 it was 41.2 µM (inactive); with PC-3, 22.8 µM (inactive). Moreover, the GI50 was 20.7 µM (inactive) in the test on OVCAR-8; 32.2 µM (inactive) in the test with SK-OV-3; 18.2 µM (inactive) with HL-60; 24.4 µM (inactive) in the test on SN12C; 27 µM (inactive) in the test with SK-MEL-28.

As to `Nc1nc(Cl)cc(NCCCCCCCCNc2cc(Cl)nc(N)n2)n1`, the GI50 in the test with NCI-H226 is 6.24 µM (inactive); with HCC 2998, 65.6 µM (inactive); in the test with HOP-62, 27.8 µM (inactive); with 786-0, 25.8 µM (inactive); with RXF 393, 12.2 µM (inactive); in the test with SNB-75, 25.9 µM (inactive). Moreover, the GI50 in the test on M14 was 19.2 µM (inactive); in the test on TK-10, 14.9 µM (inactive); in the test on IGROV-1 it was 23.7 µM (inactive); in the test on U-251, 25.6 µM (inactive); with OVCAR-4, 4.29 µM (inactive); in the test with OVCAR-8 it was 11.7 µM (inactive). In addition, the GI50 with SK-OV-3 is > 100 µM (inactive); in the test on HL-60 it was 1.46 µM (inactive); in the test with SN12C, 57.4 µM (inactive); with SK-MEL-28, 31.8 µM (inactive).

Consider `CC(CCCOC(c1ccccc1)(c1ccccc1)c1ccccc1)OC(=O)Nc1ccccc1` (stereo not given), for which the GI50 in the test with NCI-H226 was 12.6 µM (inactive); in the test with HCC 2998, 14.1 µM (inactive); with HOP-62, 14.8 µM (inactive); with 786-0 it was 16.1 µM (inactive); with RXF 393, 12.8 µM (inactive); in the test on SNB-75 it was 14.5 µM (inactive). Moreover, the GI50 with M14 was 14.2 µM (inactive); with TK-10, 20.4 µM (inactive); in the test with IGROV-1 it was 16.4 µM (inactive); in the test with U-251 it was 13.6 µM (inactive); in the test with OVCAR-4, 12.4 µM (inactive); in the test with OVCAR-8, 14 µM (inactive). The GI50 in the test with SK-OV-3 is 14.2 µM (inactive); in the test with HL-60, 11.6 µM (inactive); with SN12C it was 12 µM (inactive); in the test on SK-MEL-28, 15.3 µM (inactive).

Regarding `O=C1OC(=O)C23CSCC12C1C=CC3O1` (stereo not given), the GI50 in the test with NCI-H226, in the test on HCC 2998, in the test with HOP-62, in the test with 786-0, with RXF 393 and with SNB-75 was > 100 µM (inactive) each time. In addition, the GI50 in the test with M14, in the test with TK-10, in the test on IGROV-1, in the test on U-251, in the test with OVCAR-8 and in the test on SK-OV-3 was > 100 µM (inactive) throughout. Further, the GI50 with HL-60, in the test on SN12C and with SK-MEL-28 was > 100 µM (inactive) throughout.

As to `CCOC(=O)c1cn(Cc2ccccc2)c(=O)n1Cc1ccccc1`, the GI50 in the test with NCI-H226, with HCC 2998, in the test on HOP-62, in the test with 786-0, in the test on RXF 393 and with SNB-75 was > 100 µM (inactive) each time. Besides, the GI50 with M14, with TK-10, in the test on IGROV-1, in the test with U-251, in the test with OVCAR-4 and with OVCAR-8 was > 100 µM (inactive) in each case. Further, the GI50 in the test with SK-OV-3 is > 100 µM (inactive); with HL-60, 6.93 µM (inactive); in the test on SN12C, > 100 µM (inactive); in the test with SK-MEL-28, > 100 µM (inactive).

Consider `C/C(CN1C(=O)c2ccccc2C1=O)=N\NS(=O)(=O)c1cccc([N+](=O)[O-])c1`, for which the GI50 in the test on NCI-H226, in the test on HCC 2998, in the test on HOP-62, with 786-0, with RXF 393 and in the test with SNB-75 was > 100 µM (inactive) each time. Also, the GI50 with M14, in the test on TK-10, in the test on IGROV-1, in the test with U-251, in the test on OVCAR-4 and in the test on OVCAR-8 was > 100 µM (inactive) in each case. Also, the GI50 in the test with SK-OV-3, in the test with HL-60, in the test with SN12C and in the test on SK-MEL-28 was > 100 µM (inactive) throughout.

Regarding `COc1ccc(/C(C#N)=C(/N)SCc2ccccc2Cl)cc1`, the GI50 is 16.4 µM (inactive) in the test on NCI-H226; 17 µM (inactive) in the test with HCC 2998; 14.8 µM (inactive) with HOP-62; 16.1 µM (inactive) with 786-0; 16.6 µM (inactive) in the test on RXF 393; 23.2 µM (inactive) in the test on SNB-75. For the same compound, the GI50 in the test with M14 was 14.2 µM (inactive); in the test on TK-10 it was 32.1 µM (inactive); in the test on IGROV-1, 29.2 µM (inactive); in the test on U-251, 18.1 µM (inactive); in the test on OVCAR-8, > 10 µM (inactive); in the test with SK-OV-3, 27.8 µM (inactive). The GI50 in the test on HL-60 is 14.3 µM (inactive); in the test with SN12C, 24.7 µM (inactive); in the test on SK-MEL-28, 17.9 µM (inactive).
